According to patent publication US5534498A, “Trypsin inhibitors” (Corvas International, Inc., priority 1993, dated 1996):
Residues, ends and D or L forms follow the SMILES beside them. *: point of attachment. Boc = CC(C)(C)OC(=O)*

Columns and labels:
Type in all cases: biochemical
[1] = target: T1, Factor VIIa:rTF complex (Homo sapiens, UniProt P08709); experiment: Factor VIIa assay (S-2288 substrate); conditions: for Calculated % Selectivity VIIa: [IC50 for Trypsin/IC50 for other enzyme]×100, lower = more trypsin selective
T1 construct: 2.5 ml 400 nMhuman Factor VIIa
T1 sequence (P08709 213-466 limits assumed): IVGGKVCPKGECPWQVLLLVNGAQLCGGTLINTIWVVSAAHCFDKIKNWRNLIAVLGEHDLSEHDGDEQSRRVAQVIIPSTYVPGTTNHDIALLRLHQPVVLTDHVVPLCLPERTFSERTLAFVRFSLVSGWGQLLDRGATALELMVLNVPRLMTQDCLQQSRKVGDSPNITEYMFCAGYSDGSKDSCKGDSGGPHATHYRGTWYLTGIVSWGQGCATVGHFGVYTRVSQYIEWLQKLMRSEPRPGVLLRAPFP
T1 sequence (P08709 61-212 partner limits assumed): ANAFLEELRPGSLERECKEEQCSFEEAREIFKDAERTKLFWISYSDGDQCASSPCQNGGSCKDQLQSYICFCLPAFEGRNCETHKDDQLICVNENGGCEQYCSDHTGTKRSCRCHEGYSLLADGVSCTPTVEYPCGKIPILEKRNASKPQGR
T1 sequence (P13726 33-295 partner): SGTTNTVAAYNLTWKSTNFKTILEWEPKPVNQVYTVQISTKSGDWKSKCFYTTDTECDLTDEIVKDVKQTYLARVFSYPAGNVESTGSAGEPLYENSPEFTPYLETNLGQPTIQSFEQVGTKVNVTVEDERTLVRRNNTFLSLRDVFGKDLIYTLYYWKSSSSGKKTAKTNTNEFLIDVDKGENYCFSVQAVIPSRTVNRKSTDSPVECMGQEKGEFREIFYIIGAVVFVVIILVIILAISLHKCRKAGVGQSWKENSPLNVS
Method: (§1) The specificity of the peptide aldehydes (8 through 12) was determined in vitro by measurement of their IC50 against other enzymes involved in hemostasis. A specific concentration of enzyme and its substrate were challenged with varying concentrations of inhibitor. IC50 is that concentration of inhibitor giving 50% inhibition of substrate turnover, under the assay conditions. Specific assay procedures used are presented below.
(§2) 96-well microtiter plates were prepared for use in these assays by incubating each well with 300 μL 1% bovine serum albumin (in deionized water) for 30 minutes at 37° C., then washing three times with deionized water.
Enzyme activity was determined using as substrate, S-2288 [D-isoleucyl-L-prolyl-L-arginine-p-nitroanilide dihydrochloride], purchased from Kabi Diagnostica. The substrate was made up in deionized water prior to use.
Both solutions were then incubated for 30 minutes at room temperature before use in the assay.
The assay was run by combining in appropriate wells 50 μL inhibitor in TBS or TBS alone and 100 μL of Factor VIIa:rTF complex or background control, incubating this mixture for 30 minutes at room temperature, adding 50 μL of 2 mM S-2288, incubating for an additional 30 to 60 minutes at room temperature, then reading the absorbance of the wells at 405 nm on a microtiter plate reader set with background substraction at 650 nm.

[2] = target: T2, human Factor XIa (Homo sapiens, UniProt P03951); experiment: Factor XIa assay (S-2366 substrate); conditions: for IC50: 30 min preincubation, room temperature, tested 0.025-25 μM, Inact. = no inhibition at highest concentration; for Calculated % Selectivity XIa: [IC50 for Trypsin/IC50 for other enzyme]×100, lower = more trypsin selective
T2 construct: 50 μL of 5 nM human Factor XIa
T2 sequence (P03951 388-625 limits assumed): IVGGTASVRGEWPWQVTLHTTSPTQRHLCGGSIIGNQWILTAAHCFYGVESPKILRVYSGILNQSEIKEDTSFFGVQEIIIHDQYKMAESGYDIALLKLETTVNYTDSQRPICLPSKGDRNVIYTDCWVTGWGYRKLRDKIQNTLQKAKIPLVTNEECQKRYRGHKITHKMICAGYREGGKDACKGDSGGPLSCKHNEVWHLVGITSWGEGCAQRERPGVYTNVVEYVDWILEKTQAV
T2 sequence (P03951 19-387 partner limits assumed): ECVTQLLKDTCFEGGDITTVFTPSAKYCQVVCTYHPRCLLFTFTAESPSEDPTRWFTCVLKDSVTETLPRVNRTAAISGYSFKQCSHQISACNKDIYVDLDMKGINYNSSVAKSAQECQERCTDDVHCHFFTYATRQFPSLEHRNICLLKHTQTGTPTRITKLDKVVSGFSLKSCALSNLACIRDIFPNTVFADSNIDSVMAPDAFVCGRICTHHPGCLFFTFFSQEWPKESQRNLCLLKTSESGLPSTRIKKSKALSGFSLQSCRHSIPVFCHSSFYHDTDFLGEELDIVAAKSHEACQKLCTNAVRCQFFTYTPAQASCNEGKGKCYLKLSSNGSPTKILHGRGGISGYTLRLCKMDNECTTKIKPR
Method: as §1, with “IC50 is that concentration of inhibitor giving 50% inhibition of substrate turnover, under the assay conditions.” left out
as §2
(§3) The substrate was made up in deionized water prior to use.

[3] = target: recombinant tissue plasminogen activator (Homo sapiens, UniProt P00750); experiment: Tissue plasminogen activator assay (S-2288 substrate); conditions: for Calculated % Selectivity tPA: [IC50 for Trypsin/IC50 for other enzyme]×100, lower = more trypsin selective
recombinant tissue plasminogen activator, sequence (P00750 36-562): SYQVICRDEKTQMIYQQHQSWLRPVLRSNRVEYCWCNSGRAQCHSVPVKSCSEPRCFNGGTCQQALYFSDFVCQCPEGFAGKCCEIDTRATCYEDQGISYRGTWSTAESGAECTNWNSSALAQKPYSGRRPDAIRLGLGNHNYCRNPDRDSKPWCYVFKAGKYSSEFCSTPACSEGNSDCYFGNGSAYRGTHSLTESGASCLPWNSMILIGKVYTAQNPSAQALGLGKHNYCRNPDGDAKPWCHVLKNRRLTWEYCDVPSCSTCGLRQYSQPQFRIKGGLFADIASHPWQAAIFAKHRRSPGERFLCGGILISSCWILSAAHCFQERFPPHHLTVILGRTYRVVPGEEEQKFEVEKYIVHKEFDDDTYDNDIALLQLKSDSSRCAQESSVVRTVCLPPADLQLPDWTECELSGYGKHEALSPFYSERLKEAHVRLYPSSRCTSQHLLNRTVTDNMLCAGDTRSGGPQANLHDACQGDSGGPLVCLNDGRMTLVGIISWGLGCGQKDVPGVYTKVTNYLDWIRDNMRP
Method: as §1, with “IC50 is that concentration of inhibitor giving 50% inhibition of substrate turnover, under the assay conditions.” left out
as §2, §3

[4] = target: T3, human kallekrein (Homo sapiens, UniProt P03952); experiment: Kallikrein assay (S-2302 substrate); conditions: for IC50: 30 min preincubation, room temperature, tested 0.025-25 μM, Inact. = no inhibition at highest concentration; for Calculated % Selectivity Kallikrein: [IC50 for Trypsin/IC50 for other enzyme]×100, lower = more trypsin selective
T3 construct: 50 μL of 4 to 9 nM human kallekrein
T3 sequence (P03952 391-638 limits assumed): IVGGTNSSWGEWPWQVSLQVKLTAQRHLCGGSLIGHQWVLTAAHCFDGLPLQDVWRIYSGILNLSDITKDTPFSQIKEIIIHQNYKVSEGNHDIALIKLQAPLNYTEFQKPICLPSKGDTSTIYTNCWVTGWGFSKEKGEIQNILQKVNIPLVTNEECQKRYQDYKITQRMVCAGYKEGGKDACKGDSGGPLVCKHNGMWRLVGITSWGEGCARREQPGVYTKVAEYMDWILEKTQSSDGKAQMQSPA
T3 sequence (P03952 20-390 partner limits assumed): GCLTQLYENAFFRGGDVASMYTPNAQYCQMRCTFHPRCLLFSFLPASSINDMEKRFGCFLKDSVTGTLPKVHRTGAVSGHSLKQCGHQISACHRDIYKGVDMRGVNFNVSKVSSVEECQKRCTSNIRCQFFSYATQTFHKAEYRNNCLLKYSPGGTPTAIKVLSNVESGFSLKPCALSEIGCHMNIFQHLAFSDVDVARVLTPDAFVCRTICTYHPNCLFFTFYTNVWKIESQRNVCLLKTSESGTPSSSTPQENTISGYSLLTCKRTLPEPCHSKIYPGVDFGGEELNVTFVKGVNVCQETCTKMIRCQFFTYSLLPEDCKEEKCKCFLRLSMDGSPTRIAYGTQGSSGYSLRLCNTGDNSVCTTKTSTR
Method: as §1, with “IC50 is that concentration of inhibitor giving 50% inhibition of substrate turnover, under the assay conditions.” left out
as §2, §3

[5] = target: T4, human Factor Xa (Homo sapiens, UniProt P00742); experiment: Factor Xa assay (Pefachrome Xa substrate); conditions: for Calculated % Selectivity Xa: [IC50 for Trypsin/IC50 for other enzyme]×100, lower = more trypsin selective
T4 construct: 50 μL 30 nM human Factor Xa
T4 sequence (P00742 235-488 limits assumed): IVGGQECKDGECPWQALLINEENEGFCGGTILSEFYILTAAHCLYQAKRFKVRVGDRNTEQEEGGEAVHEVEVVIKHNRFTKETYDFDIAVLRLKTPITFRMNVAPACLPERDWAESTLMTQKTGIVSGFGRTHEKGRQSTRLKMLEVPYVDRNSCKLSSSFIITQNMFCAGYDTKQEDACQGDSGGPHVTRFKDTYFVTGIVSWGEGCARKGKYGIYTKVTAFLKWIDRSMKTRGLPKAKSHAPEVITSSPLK
T4 sequence (P00742 41-179 partner limits assumed): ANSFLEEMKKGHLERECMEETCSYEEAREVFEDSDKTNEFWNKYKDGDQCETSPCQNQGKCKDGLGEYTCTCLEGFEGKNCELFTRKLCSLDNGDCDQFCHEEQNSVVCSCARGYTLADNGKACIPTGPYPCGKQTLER
Method: as §1, with “IC50 is that concentration of inhibitor giving 50% inhibition of substrate turnover, under the assay conditions.” left out
as §2
Enzyme activity was determined using as substrate, Pefachrome Xa [N-methoxycarbonyl-D-cyclohexylalanyl-L-glycyl-L-arginine p-niroanilide acetate], purchased from Centerchem, Inc. The substrate was made up in deionized water prior to use.

[6] = target: T5, Activated human Protein C (Homo sapiens, UniProt P04070); experiment: Protein C assay (Pefachrome PC substrate); conditions: for Calculated % Selectivity Protein C: [IC50 for Trypsin/IC50 for other enzyme]×100, lower = more trypsin selective
T5 construct: from tissue
T5 sequence (P04070 212-461 limits assumed): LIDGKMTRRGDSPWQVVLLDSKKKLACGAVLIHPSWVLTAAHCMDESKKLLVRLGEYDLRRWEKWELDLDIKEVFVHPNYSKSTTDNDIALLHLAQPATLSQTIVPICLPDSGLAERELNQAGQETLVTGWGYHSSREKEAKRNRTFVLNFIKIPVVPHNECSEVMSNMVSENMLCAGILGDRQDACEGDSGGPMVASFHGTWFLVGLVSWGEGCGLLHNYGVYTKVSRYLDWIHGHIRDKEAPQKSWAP
T5 sequence (P04070 43-197 partner limits assumed): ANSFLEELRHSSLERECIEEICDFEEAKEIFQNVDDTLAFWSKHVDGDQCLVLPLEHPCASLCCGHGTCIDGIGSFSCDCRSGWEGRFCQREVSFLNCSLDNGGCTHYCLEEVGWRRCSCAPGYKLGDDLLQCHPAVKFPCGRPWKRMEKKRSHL
Method: as §1, with “IC50 is that concentration of inhibitor giving 50% inhibition of substrate turnover, under the assay conditions.” left out
as §2
Enzyme activity was determined using as substrate, Pefachrome PC [δ-carbobenzoloxy-D-lysyl-L-prolyl-L-arginine-p-nitroanilide], purchased from Centerchem, Inc. The substrate was made up in deionized water prior to use. Protac used to activate Protein C was obtained from American Diagnostics.

[7] = target: T6, bovine trypsin (Bos taurus, UniProt P00760); experiment: Trypsin assay, IC50 (S-2222 substrate); conditions: for IC50: 30 min preincubation, room temperature, tested 0.025-25 μM; for Calculated % Selectivity Trypsin: trypsin relative to itself (reference, 100 by definition)
T6 sequence (P00760 24-246): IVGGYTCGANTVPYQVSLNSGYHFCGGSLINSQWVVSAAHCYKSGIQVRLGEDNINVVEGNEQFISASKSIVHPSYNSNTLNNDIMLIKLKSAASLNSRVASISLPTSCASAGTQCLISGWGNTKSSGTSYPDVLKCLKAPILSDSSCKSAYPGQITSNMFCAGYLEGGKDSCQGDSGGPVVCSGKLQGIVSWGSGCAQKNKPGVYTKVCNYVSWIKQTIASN
Method: as §1, with “IC50 is that concentration of inhibitor giving 50% inhibition of substrate turnover, under the assay conditions.” left out
as §2, §3

[8] = target: T7, bovine thrombin (Bos taurus, UniProt P00735); experiment: Thrombin assay (S-2238 substrate); conditions: for IC50: 30 min preincubation, room temperature, tested 0.025-25 μM, Inact. = no inhibition at highest concentration; for Calculated % Selectivity Thrombin: [IC50 for Trypsin/IC50 for other enzyme]×100, lower = more trypsin selective
T7 construct: 50 μL 20 nM bovine thrombin
Method: as §1, §2
Enzyme activity was determined using as substrate, S-2238 [D-phenylalanyl-L-pipecolyl-L-arginine-p-nitroanilide dihydrochloride], purchased from Kabi Diagnostica. The substrate was made up in deionized water prior to use.
(§4) The assay was run by combining in appropriate wells 50 μL TBS and 50 μL inhibitor in TBS or TBS alone and 50 μL 20 nM bovine thrombin (or TBS as background control), incubating this mixture for 30 minutes at room temperature, adding 50 μL 1 mM S-2238, incubating for an additional 30 minutes at room temperature, then reading the absorbance of the wells at 405 nm on a microtiter plate reader set with background substraction at 650 nm.

[9] = target: plasmin (Homo sapiens, UniProt P00747); experiment: Plasmin assay (S-2251 substrate); set-up: 50 μL 25 nM human plasmin; conditions: for IC50: 30 min preincubation, room temperature, tested 0.025-25 μM, Inact. = no inhibition at highest concentration; for Calculated % Selectivity Plasmin: [IC50 for Trypsin/IC50 for other enzyme]×100, lower = more trypsin selective
plasmin, sequence (P00747 581-810 limits assumed): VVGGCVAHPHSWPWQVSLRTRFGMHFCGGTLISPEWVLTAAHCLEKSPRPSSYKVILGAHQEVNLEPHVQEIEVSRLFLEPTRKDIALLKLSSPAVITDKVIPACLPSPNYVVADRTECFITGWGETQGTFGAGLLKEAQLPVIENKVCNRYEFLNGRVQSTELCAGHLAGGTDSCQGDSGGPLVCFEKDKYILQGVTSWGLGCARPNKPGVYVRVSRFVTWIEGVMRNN
plasmin, sequence (P00747 97-580 partner limits assumed): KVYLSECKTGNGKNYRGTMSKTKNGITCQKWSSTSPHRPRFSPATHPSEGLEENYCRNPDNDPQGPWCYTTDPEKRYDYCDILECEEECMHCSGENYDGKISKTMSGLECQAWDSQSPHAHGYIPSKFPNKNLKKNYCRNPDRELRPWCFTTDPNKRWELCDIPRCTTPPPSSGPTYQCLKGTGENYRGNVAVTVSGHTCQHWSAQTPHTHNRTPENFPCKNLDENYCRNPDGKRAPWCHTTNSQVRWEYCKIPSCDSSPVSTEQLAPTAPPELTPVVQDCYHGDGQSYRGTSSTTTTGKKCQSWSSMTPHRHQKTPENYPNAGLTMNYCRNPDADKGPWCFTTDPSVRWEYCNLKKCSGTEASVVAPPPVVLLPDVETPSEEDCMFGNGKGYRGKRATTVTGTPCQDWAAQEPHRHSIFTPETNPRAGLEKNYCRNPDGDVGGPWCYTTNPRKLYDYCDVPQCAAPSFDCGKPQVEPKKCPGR
Method: as §1, with “IC50 is that concentration of inhibitor giving 50% inhibition of substrate turnover, under the assay conditions.” left out
as §2, §3

[10] = target: T8, human urokinase (Homo sapiens, UniProt P00749); experiment: Urokinase assay (S-2444 substrate); conditions: for Calculated % Selectivity UK: [IC50 for Trypsin/IC50 for other enzyme]×100, lower = more trypsin selective
T8 construct: 50 μL of 270 U/mL human urokinase
Method: as §1, §2
Enzyme activity was determined using as substrate S-2444 [L-pyroglutamyl-L-glycyl-L-arginine-p-nitroanilide hydrochloride], purchased from Kabi Diagnostica. The substrate was made up in deionized water prior to use.
as §4, with “μL” for “μL TBS and 50 μL”, “of 270 U/mL human urokinase” for “20 nM bovine thrombin”, “control) and 50 μL TBS,” for “control),”, “S-2444,” for “S-2238,”

[11] = target: bovine and human pancreatic trypsin; experiment: Potency: determination of inhibitor constant Ki against trypsin (S-2222 substrate, Dixon plot); conditions: 37° C., TBS pH 7.4, 15 min preincubation, read-out: Ki For Peptide Aldehydes Against Trypsin
Method: The potency and specificity of the compounds of the present invention are determined by in vitro assay methods well known in the art. […] Specifically, the inhibitor constant, Ki, of the compounds can be determined by the method of Dixon, Biochem. J. 55:170 (1953). The specificity is assessed by determination of the concentration, IC50, of compound required to give 50% inhibition of the enzymatic activity of the coagulation enzymes, kallikrein, factor XIa, factor VIIa, factor Xa, thrombin; the fibrinolysis enzymes, plasmin, tissue plasminogen activator (tPA), and urokinase (UK), and the anticoagulation enzyme, protein C. Specificity is found when the concentration of compound giving 50% inhibition of trypsin is low relative to the concentration required to give like inhibition of the other enzymes.
Enzyme activity was determined using as substrate S-2222 [N-benzoyl-L-isoleucyl-L-glutamyl-glycyl-L-arginine-p-nitroanilide hydrochloride where glutamyl side chain is 50% carboxylic acid and 50% methyl ester], purchased from Kabi Diagnostica. The substrate was made up in deionized water prior to use.
A 96-well microtiter plate was prepared for use in the assay by incubating each well with 300 μL of 1% bovine serum albumin (in deionized water) for 30 minutes at 37° C., and washing three times with deionized water.
To each well was added 50 μL TBS (0.1M Tris, 0.14M NaCl, pH 7.4), 50 μL 2.5 nM trypsin and 50 μL peptide aldehyde in TBS or TBS alone. After incubating for 15 minutes at 37° C., 50 μL of S-2222 (at 37° C.) at a specified concentration was added to each well. After mixing, the rate of substramte turnover at 37° C. was measured for 30 minutes at 405 nm (generation of p-nitroaniline). The initial S-2222 concentrations in the assay mixture were 0.45, 0.23, 0.11, 0.056, and 0.028 mM.
Ki was determined graphically using a Dixon plot, as described in Dixon, Biochem. J. 55:170 (1953).

[12] = 30 min preincubation, room temperature, tested 0.025-25 μM, Inact. = no inhibition at highest concentration

Row | IC50 [1, 12] | IC50 [2] | IC50 tPA [3, 12] | IC50 [4] | IC50 [5, 12] | IC50 [6, 12] | IC50 [7] | IC50 [8] | IC50 [9] | Calculated % Selectivity VIIa [1] | Calculated % Selectivity XIa [2] | Calculated % Selectivity tPA [3] | Calculated % Selectivity Kallikrein [4] | Calculated % Selectivity Xa [5] | Calculated % Selectivity Protein C [6] | Calculated % Selectivity Trypsin [7] | Calculated % Selectivity Thrombin [8] | Calculated % Selectivity Plasmin [9] | IC50 [10, 12] | Calculated % Selectivity UK [10] | SMILES | other results
1 | > 25 µM | 11 µM | Inact. | 4 µM | 25 µM | > 25 µM | 1.7 µM | 20 µM | 8 µM | – | – | – | – | – | – | – | – | – | – | – | CC(=O)N[C@@H](CC(C)C)C(=O)N[C@@H](CC(C)C)C(=O)N[C@H](C=O)CCCNC(=N)N [Leupeptin, reference compound] | IC50 UK [10, 12]: Inact.
2 | – | 13 µM | – | 8 µM | 2 µM | > 25 µM | < 0.025 µM | 9 µM | 1.2 µM | 0% | < 0.19% | < 0.1% | < 0.3% | < 1.3% | < 0.1% | 100% | < 0.28% | < 2% | > 25 µM | < 0.1% | CC(C)COC(=O)NC(CC(=O)O)C(=O)N1CCCC1C(=O)NC(C=O)CCCN=C(N)N [Compound 10, N-isobutyloxycarbonyl-L-Asp-L-Pro-L-argininal] | IC50 VIIA [1, 12]: Inact.; IC50 [3, 12]: > 25 µM
3 | > 25 µM | 4 µM | Inact. | 6 µM | – | – | 0.006 µM | 14 µM | 0.6 µM | < 0.02% | 0.15% | 0% | 0.10% | 0% | 0% | 100% | 0.04% | 1% | 9 µM | 0.07% | CC(C)(C)OC(=O)N[C@@H](CCC(=O)O)C(=O)N1CCC[C@H]1C(=O)N[C@H](C=O)CCCNC(=N)N [Compound 8, N-t-butyloxycarbonyl-L-Glu-L-Pro-L-argininal] (Boc-Glu-Pro-Arg-aldehyde) | Ki [11]: 0.0014 µM; IC50 Xa [5, 12]: Inact.; IC50 Protein C [6, 12]: Inact.
